We go through two compounds from patent US12144795B2, “Cannabidiol compositions having modified cannabinoid profiles” (priority 2018, dated 2024).

Data set [1] is described as follows: HPLC method quantifying low levels of D9-THC in stored cannabidiol samples. As to conditions: after stored for 23 days at 55-60° C. Format: physicochemical. Here is the method:
An analytical method using HPLC was developed to determine low levels of delta-9-tetrahydrocannabinol in cannabidiol samples. A Waters XBridge C18 3.5 μm, 3.0×150 mm column was employed and operated at a temperature of 30° C., UV wavelength of 225 nm, and injection size of 20 μL. Mobile Phase A was 0.02% (v/v) acetic acid in H2O, while mobile phase B was 0.02% (v/v) acetic acid in acetonitrile (ACN).
An aliquot of 0.5 mL of a D9-THC reference standard (Cerilliant, 1.0 mg/mL MeOH solution) was diluted in a 500-mL volumetric flask using sample diluent (70/30 Acetonitrile/H2O, v/v). The D9-THC concentration was 0.001 mg/mL in the standard stock solution, which corresponded with 200 ppm of D9-THC as compared to the CBD sample solution (nominal CBD concentration was 5.0 mg/mL).
An Aliquot of 5 mL of THC Stock Standard Solution was diluted in a 100-mL volumetric flask using the sample diluent. The D9-THC concentration was 0.00005 mg/mL in the working standard solution, corresponding with 10 ppm of D9-THC as compared to the CBD sample solution.
About 50 mg of cannabidiol sample was weighed into a 10-mL volumetric flask. The volumetric flask was diluted to volume using sample diluent and mixed well.
A minimum of 6 working standard solutions were injected prior to the sample set. Furthermore, a maximum of 6 injections of CBD sample were injected between bracketing working standard solutions.
The amount of THC in each sample was calculated using the following
For reference, each chromatogram in FIG. 6A through FIG. 6F is shown against a 10 ppm THC working standard. For samples 1, 2, and 3, roughly 50.28 mg, 50.77 mg, and 55.60 mg material was used.

Data set [2] in a line: Particle size distribution (Mastersizer 2000 laser diffraction, Morphologi G3). Format: physicochemical. The source says:
A Mastersizer 2000 was used to analyze the particle size distribution in cannabidiol samples. This method involved laser diffraction to measure the particle size distribution by the volume standard. Roughly 1 g of each sample was weighed and transferred along the middle of the sample tray. The sample feed gates were 6 mm-8 mm. The instrument software parameters were set to a dispersive air pressure of 3 bar, vibration feed rate of 60%, refractive index of 1.5295, absorption index of 0.01, and size range from 0.020 μm to 2000.000 μm. FIG. 8A-FIG. 8R show the result analysis report for each sample measured as well as their respective particle size distribution graph. Malvern Pananalytical's Morphologi G3 Analyzer was used in another series of experiments to examine sample volume size distribution.

`C=C(C)[C@@H]1CCC(C)=C[C@H]1c1c(O)cc(CCCCC)cc1O` [Sample 1, Cannabidiol]: the “Result (D9-THC in ppm)” value in data set [1] is given as 1.9 ppm. Besides, in data set [2], the “Malvern 2K (dry dispersion) D10” value is reported as “D10: 7.8 um”, the “Malvern 2K (dry dispersion) D50” value is given as “D50: 21.8 um” and the “Malvern 2K (dry dispersion) D90” value was “D90: 152.9 um”.
For `C=C(C)[C@@H]1CCC(C)=C[C@H]1c1c(O)cc(CCCCC)cc1O` [Sample 2, Cannabidiol] the same measures were 5.9 ppm, “D10: 8.0 um”, “D50: 23.9 um” and “D90: 157.5 um”.
